{
  "source": "patent US11471674B2",
  "about": "“Electroosmotic convection-enhanced delivery system” (University of Pittsburgh—Of the Commonwealth System of …, priority 2012, dated 2022)",
  "key": {"[1]": {"assay": "Electrophoretic mobility of infusates", "assay_type": "physicochemical", "details": "N = 3", "excerpt": "As noted above, three solutes of varying molecular weight and electrophoretic mobilities were utilized for in vivo infusions. BODIPY labeled 10 kDa dextran (B10) and TR70 were selected because of their dissimilar molecular weights, their ability to be resolved spectroscopically, and their small electrophoretic mobilities, as shown in Table 1 below (Vd at 10% of I0 calculated as in paragraph 25). The electrophoretic mobility is the ratio of the velocity that a molecule adopts in the presence of an electric field of a particular magnitude. For comparison, the electroosmotic mobility is the velocity that the fluid adopts in the presence of an electric field. The […] is directly proportional to the magnitude of the zeta potential governing the electroosmotic flow which we estimate to be −22.8 mV (Guy, Y. et al., “Determination of zeta-potential in rat organotypic hippocampal cultures.” Biophysical Journal, (2008) 94: 4561-9; Guy et al., “Determination of Zeta-Potential and Tortuosity in Rat Organotypic Hippocampal Cultures from Electroosmotic Velocity Measurements under Feedback Control.” Anal. Chem. (2009) 81:3001-7, both of which are hereby incorporated by reference). The electroosmotic mobility of the extracellular fluid in brain is 1.7×10^−8 m^2/Vs. This is much larger than the electrophoretic mobilities of the two fluorescent dextrans in Table 1. […]"}, "[2]": {"assay": "In vivo electrokinetic infusion via open tube catheter, volume of distribution", "details": "rat thalamus, 25.0 μA for 45 minutes", "experimental": "Male Sprague-Dawley rats, with weights ranging from 260 to 290 g, were anesthetized with isoflurane, and wrapped in a 37° C. homeothermic blanket. An incisor bar was set at 0 mm at the interaural line. Rats underwent aseptic stereotactic surgery, whereby bilateral craniotomies were made to position an infusion catheter and counter catheter into the thalami bilaterally (from bregma: 4.0 mm lateral, 1.3 mm posterior, and 5.0 mm below the dura) for volumetric analysis. The capillaries were also implanted into the hippocampi bilaterally (from bregma: 4.0 mm lateral, 1.3 mm posterior, and 2.5 mm below the dura). […]\n(§1) After the electrokinetic infusion period, the rats underwent rapid transcardial perfusion with 250 mL of 8% cold paraformaldehyde in PBS. […] Vibratome sectioning was quantitative, with no discarded tissue between slices with a visible fluorophore spot. […] The 300 μm thick coronal slices were mounted onto glass slides and imaged with an inverted fluorescence microscope. Image sequences were acquired and the fluorescent intensity was measured.\nThe volumes of distribution from the infusions were determined by evaluating the fluorescence intensities amongst the coronal tissue slices. The overall maximum fluorescence intensity (I0) at the infusion catheter implantation site was determined for each rat. […]"}, "[3]": {"assay": "In vivo electrokinetic infusion via hollow fiber probe, volume of distribution", "details": "rat striatum, 25 μA, 45 minutes", "excerpt": "In the experiments described below, the distal end of the hollow fiber catheter was a hollow fiber having a 280 μm inside and 360 μm outside diameter, and a length of 3-4 mm (724). A 10- or 15-cm long fused silica catheter ([…] and 670 μm outside diameters, 720) directs fluid to the hollow fiber probe. The 100 μm inside diameter infusion catheter 720 was filled with the fluorophore solution of interest, as detailed below, in a glucose-free HEPES-buffered salt solution (GF-HBSS), containing in mM: 143.4 NaCl, 5 HEPES, 5.4 KCl, 1.2 MgSO4, 1.2 NaH2PO4, and 2.0 CaCl2. The probe was placed in a vial containing the same solution (704) through a septum. […]\nas §1, with “phosphate buffer solution.” for “PBS.”, “200” for “300”, “microscope.” for “microscope. Image sequences were acquired and the fluorescent intensity was measured.”\nThe volumes of distribution from the infusions were determined by measuring the fluorescence intensities in each coronal slice. The fluorescent area in each image was determined by counting pixels above a threshold value dictated by the noise level in the background (nonfluorescent portion of the image). […]"}},
  "data": [
    {"smiles": "[Ru+2].c1ccc(-c2ccccn2)nc1.c1ccc(-c2ccccn2)nc1.c1ccc(-c2ccccn2)nc1", "note": "[Ru(bpy)3^2+, tris(2,2′-bipyridyl)ruthenium(II)]", "values": [
      {"measurement": "Electrophoretic Mobility (μep)", "setting": "[1]", "result": "25.86 ± 0.02 10^−9 m^2/Vs"},
      {"measurement": "Vd at 10% of I0", "setting": "[2]; calculated", "result": 260, "unit": "µL"},
      {"measurement": "Vd at 25% of I0", "setting": "[2]; open tube catheter, mean±SEM", "result": "13.0 ± 2.0", "unit": "µL"},
      {"measurement": "volume of distribution (fluorescent volume)", "setting": "[3]", "result": 9.0, "unit": "µL"}
    ]}
  ]
}
